{"source": "ChEMBL document CHEMBL3351985", "about": "“Prophylactic treatment of asthma by an ozone scavenger in a mouse model” (2015)", "key": {"[1]": {"species_on_record": "Mus musculus", "assay": "Antiasthmatic activity in ovalbumin-sensitized BALB/c mouse allergy model assessed as reduction in epithelial cell mucus metaplasia compound treated at 4 g through inhalation prior to ovalbumin challenge by hematoxylin eosin staining method relative to control", "format": "functional"}, "[2]": {"species_on_record": "Mus musculus", "assay": "Antiasthmatic activity in ovalbumin-sensitized BALB/c mouse allergy model assessed as reduction in BAL aldehyde level compound treated at 4 g through inhalation prior to ovalbumin challenge", "format": "functional, organism-based"}, "[3]": {"species_on_record": "Mus musculus", "assay": "Antiasthmatic activity in ovalbumin-sensitized BALB/c mouse allergy model assessed as reduction in eosinophil count compound treated at 4 g through inhalation prior to ovalbumin challenge (reference value: 11 /mm3)", "format": "functional"}, "[4]": {"species_on_record": "Mus musculus", "assay": "Antiasthmatic activity in ovalbumin-sensitized BALB/c mouse allergy model assessed as reduction in neutrophil count compound treated at 4 g through inhalation prior to ovalbumin challenge (reference value: 43.1 /mm3)", "format": "functional"}, "[5]": {"species_on_record": "Mus musculus", "assay": "Antiasthmatic activity in ovalbumin-sensitized BALB/c mouse allergy model assessed as reduction in occlusion of the airway diameter by mucus compound treated at 4 g through inhalation prior to ovalbumin challenge by hematoxylin eosin staining method relative to control", "format": "functional"}, "[6]": {"species_on_record": "Mus musculus", "assay": "Antiasthmatic activity in ovalbumin-sensitized BALB/c mouse allergy model assessed as reduction in spleen tissue aldehyde level compound treated at 4 g through inhalation prior to ovalbumin challenge", "format": "functional, organism-based"}, "[7]": {"species_on_record": "Mus musculus", "assay": "Antiasthmatic activity in ovalbumin-sensitized BALB/c mouse allergy model assessed as reduction in sub-epithelial fibrosis compound treated at 4 g through inhalation prior to ovalbumin challenge by hematoxylin eosin staining method relative to control", "format": "functional", "design": "scale not given: the % may be the effect or the level left"}, "[8]": {"species_on_record": "Mus musculus", "assay": "Antiasthmatic activity in ovalbumin-sensitized BALB/c mouse allergy model assessed as reduction in peribronchial inflammatory cell infiltration compound treated at 4 g through inhalation prior to ovalbumin challenge by hematoxylin eosin staining method relative to control", "format": "functional", "design": "scale not given: the % may be the effect or the level left"}, "[9]": {"species_on_record": "Mus musculus", "assay": "Antiasthmatic activity in ovalbumin-sensitized BALB/c mouse allergy model assessed as reduction in lung aldehyde level compound treated at 4 g through inhalation prior to ovalbumin challenge", "format": "functional, organism-based"}, "[10]": {"species_on_record": "Mus musculus", "assay": "Antiasthmatic activity in ovalbumin-sensitized BALB/c mouse allergy model assessed as reduction in perivascular inflammatory cell infiltration compound treated at 4 g through inhalation prior to ovalbumin challenge by hematoxylin eosin staining method relative to control", "format": "functional", "design": "scale not given: the % may be the effect or the level left"}}, "note": "Activity calls are given as the source filed them. No cut-off for these calls is given here."}
{"smiles": "C=C(C)[C@H]1CC=C(C)CC1", "note": "[D-LIMONENE]", "values": [{"measurement": "fold change (FC)", "setting": "[1]", "value": 5}, {"measurement": "Activity", "setting": "[2]", "value": "Active"}, {"measurement": "Activity", "setting": "[3]", "value": "12.6 /mm3"}, {"measurement": "Activity", "setting": "[4]", "value": "29.8 /mm3"}, {"measurement": "fold change (FC)", "setting": "[5]", "value": 2}, {"measurement": "Activity", "setting": "[6]", "value": "Active"}, {"measurement": "Activity", "setting": "[7]", "value": 20, "unit": "%"}, {"measurement": "Activity", "setting": "[8]", "value": 40, "unit": "%"}, {"measurement": "Activity", "setting": "[9]", "value": "Active"}, {"measurement": "Activity", "setting": "[10]", "value": 40, "unit": "%"}]}
